From patent US20250304587A1, “WEE1 INHIBITOR, PREPARATION THEREFOR AND USE THEREOF” (JIANGSU TASLY DIYI PHARMACEUTICAL CO., LTD., priority 2022, published 2025)

Columns and labels:
OVCAR-3 cells = assay: Cell Titer-Glo anti-proliferation, OVCAR-3 cells; format: cell-based; conditions: 3 days, read-out: Anti-proliferative activity OVCAR-3 (IC50 class)
Description: (§1) A. Evaluation of the Anti-Proliferative Effect of Compounds on BxPC3, HT-29 and OVCAR-3 Cells by the Cell Titer-Glo Method
(§2) Compound solutions of different concentration gradients were prepared. […] The cell growth group without compound was used as a positive control (maximum signal control) and the medium was used as a negative control (minimum signal control), while ensuring that the final level of DMSO in each reaction well was 0.2%. After removing the medium from the 384-well plate, 25 μl of the configured compound at different concentrations was transferred into the well plate and the compound and cells were incubated in the cell incubator at 37° C. with 5% CO2 for 3 days.
(§3) The 384-well plates were removed from the cell incubator and allowed to equilibrate for 1 h to room temperature. 25 μl of Cell Titer-Glo assay was added to each well, lysed on a shaker for 2 min and then read out (Luminescence) using a BMG PHERAStar after 10 min incubation. Calculate the inhibition rate from the luminescence signal.
(§4) to calculate the rate of inhibition of the cells by different concentrations of the compounds. The IC50 of the compound on cell activity inhibition was calculated by fitting a log(inhibitor) vs. response-Variable slope model to GraphPad Prism 6. The fitted equation was: Y=Bottom+(Top-Bottom)/(1+10^((Log IC50−X)*HillSlope)), where Y represents the rate of inhibition and X represents the concentration of the known compound after Log.

BxPC3 cells = assay: Cell Titer-Glo anti-proliferation, BxPC3 cells; format: cell-based, human; conditions: 3 days, read-out: Anti-proliferative activity BxPC3 (IC50 class)
Description: as §1, §2, §3, §4

HT-29 cells = assay: Cell Titer-Glo anti-proliferation, HT-29 cells; format: cell-based, human; conditions: 3 days, read-out: Anti-proliferative activity HT-29 (IC50 class)
Description: as §1, §2, §3, §4

Row | Structure (SMILES) | IC50 (OVCAR-3 cells) [nM] | IC50 (BxPC3 cells) [nM] | IC50 (HT-29 cells) [nM]
1 | C=CCn1c(=O)c2cnc(Nc3ccc(N4CCC5(CCN(C)CC5)CC4)cc3)nc2n1-c1ccc2c(n1)C(O)(CC)C1(CC2)CC1 (stereo not drawn) [Compound 69b] | 1000 to 2000 | 1000 to 2000 | 1000 to 2000
2 | C=CCn1c(=O)c2cnc(Nc3ccc(N4C[C@@H](C)O[C@@H](C)C4)cc3)nc2n1-c1ccc2c(n1)[C@](O)(CC)C1(CC1)C2 (single isomer, unassigned) [Compound 31a] | 5000 to 10000 | 5000 to 10000 | 2000 to 5000
3 | C=CCn1c(=O)c2cnc(Nc3ccc(N4CCN(C)CC4)cc3)nc2n1-c1ccc2c(n1)C(O)(C(F)(F)F)C1(CC2)CC1 (stereo not drawn) [Compound 53b] | 1000 to 2000 | 100 to 1000 | 100 to 1000
4 | C=CCn1c(=O)c2cnc(Nc3ccc(N4CC5CC(C4)N5C)cc3)nc2n1-c1ccc2c(n1)C(O)C1(CC2)CC1 (racemic) [Compound 34] | 1000 to 2000 | 1000 to 2000 | 100 to 1000
5 | C=CCn1c(=O)c2cnc(Nc3ccc(N4CC5CC(C4)N5C)c(OC)c3)nc2n1-c1ccc2c(n1)C(O)C1(CC2)CC1 (racemic) [Compound 49] | 2000 to 5000 | 2000 to 5000 | 2000 to 5000
6 | C=CCn1c(=O)c2cnc(Nc3ccc(N4CC5CC(C4)N5C(C)C)cc3)nc2n1-c1ccc2c(n1)C(O)(CC)C1(CC2)CC1 (single isomer, unassigned) [Compound 36a] | 100 to 1000 | 100 to 1000 | 100 to 1000
7 | C=CCn1c(=O)c2cnc(Nc3ccc(N4CC5CC(C4)N5C(C)C)cc3)nc2n1-c1ccc2c(n1)[C@](O)(CC)C1(CC2)CC1 (single isomer, unassigned) [Compound 36b] | 100 to 1000 | 100 to 1000 | 100 to 1000
8 | C=CCn1c(=O)c2cnc(Nc3ccc(N4CCC(N(C)C)CC4)c(C)c3)nc2n1-c1ccc2c(n1)[C@@H](O)C1(CC2)CC1 (single isomer, unassigned) [Compound 48a] | 100 to 1000 | 100 to 1000 | 100 to 1000
9 | C=CCn1c(=O)c2cnc(Nc3ccc(N4C[C@H]5CN(C)C[C@H]5C4)cc3)nc2n1-c1ccc2c(n1)[C@@](C)(O)C1(CC2)CC1 (single isomer, unassigned) [Compound 43b] | 100 to 1000 | 100 to 1000 | 100 to 1000
10 | C=CCn1c(=O)c2cnc(Nc3ccc(N4CC5CC(C4)N5CCF)cc3)nc2n1-c1ccc2c(n1)C(C)(O)C1(CC2)CC1 (stereo not drawn) [Compound 59b] | 1000 to 2000 | 1000 to 2000 | 100 to 1000
11 | C=CCn1c(=O)c2cnc(Nc3ccc(N4C[C@@H]5C[C@H]4CN5C)cc3)nc2n1-c1ccc2c(n1)[C@](C)(O)C1(CC2)CC1 (single isomer, unassigned) [Compound 45b] | 1000 to 2000 | 1000 to 2000 | 1000 to 2000
12 | C=CCn1c(=O)c2cnc(Nc3ccc(N4CC5CC(C4)N5C)cc3)nc2n1-c1ccc2c(n1)[C@](O)(CC)C1(CC2)CC1 (single isomer, unassigned) [Compound 64a] | 100 to 1000 | 100 to 1000 | 100 to 1000
13 | C=CCn1c(=O)c2cnc(Nc3ccc(N4C[C@@H](C)O[C@@H](C)C4)cc3)nc2n1-c1ccc2c(n1)[C@@](O)(CC)C1(CC1)C2 (single isomer, unassigned) [Compound 31b] | 1000 to 2000 | 2000 to 5000 | 2000 to 5000
14 | C=CCn1c(=O)c2cnc(Nc3ccc(N4C[C@H]5CN(C)C[C@H]5C4)cc3)nc2n1-c1ccc2c(n1)[C@H](O)C1(CC2)CC1 (single isomer, unassigned) [Compound 63b] | 1000 to 2000 | 1000 to 2000 | 100 to 1000
15 | C=CCn1c(=O)c2cnc(Nc3ccc(N4CCC(N(C)C)CC4)c(C)c3)nc2n1-c1ccc2c(n1)C(C)(O)C1(CC2)CC1 (stereo not drawn) [Compound 52b] | 100 to 1000 | 100 to 1000 | 100 to 1000
16 | C=CCn1c(=O)c2cnc(Nc3ccc(N4CCN(C)CC4)c(CO)c3)nc2n1-c1ccc2c(n1)C(C)(O)C1(CC1)C2 (racemic) [Compound 19] | 2000 to 5000 | 2000 to 5000 | 2000 to 5000
17 | C=CCn1c(=O)c2cnc(Nc3ccc(N4CC5CC(C4)N5C)cc3)nc2n1-c1ccc2c(n1)[C@](C)(O)C1(CC2)CC1 [Compound 7b] | 100 to 1000 | 100 to 1000 | 100 to 1000
18 | C=CCn1c(=O)c2cnc(Nc3ccc(N4CCN(C)CC4)c(C)c3)nc2n1-c1ccc2c(n1)[C@](C)(O)C1(CC2)CC1 (single isomer, unassigned) [Compound 23b] | 100 to 1000 | 100 to 1000 | 100 to 1000
19 | C=CCn1c(=O)c2cnc(Nc3ccc(N4CCN(C)CC4)c(C)c3)nc2n1-c1ccc2c(n1)C(C)(O)C1(CC1)C2 (racemic) [Compound 10] | 100 to 1000 | 2000 to 5000 | 1000 to 2000
20 | C=CCn1c(=O)c2cnc(Nc3ccc(N4C[C@H]5C[C@@H]4CN5C)cc3)nc2n1-c1ccc2c(n1)C(O)(CC)C1(CC1)C2 (stereo partly drawn) [Compound 26] | 2000 to 5000 | 2000 to 5000 | 1000 to 2000
21 | C=CCn1c(=O)c2cnc(Nc3ccc(N4CCN(C)CC4)c(C)c3)nc2n1-c1ccc2c(n1)C(C)(O)C1(CC2)CC1 (racemic) [Compound 8] | 1000 to 2000 | 1000 to 2000 | 100 to 1000
22 | C=CCn1c(=O)c2cnc(Nc3ccc(N4CCC5(CCN(C)CC5)CC4)c(F)c3)nc2n1-c1ccc2c(n1)C(O)C1(CC2)CC1 (single isomer, unassigned) [Compound 62a] | 1000 to 2000 | 1000 to 2000 | 100 to 1000
23 | C=CCn1c(=O)c2cnc(Nc3ccc(N4CC5CC(C4)N5C(C)C)cc3)nc2n1-c1ccc2c(n1)[C@@](C)(O)C1(CC2)CC1 (single isomer, unassigned) [Compound 35b] | 100 to 1000 | 100 to 1000 | 100 to 1000

Results, then the compound that gave them:

Row | IC50 (OVCAR-3 cells) [nM] | IC50 (BxPC3 cells) [nM] | IC50 (HT-29 cells) [nM] | Structure (SMILES)
24 | 100 to 1000 | 100 to 1000 | 100 to 1000 | C=CCn1c(=O)c2cnc(Nc3ccc(N4CCC(N(C)C)C(F)C4)cc3)nc2n1-c1ccc2c(n1)C(C)(O)C1(CC2)CC1 (single isomer, unassigned) [Compound 60b]
25 | 100 to 1000 | 100 to 1000 | 100 to 1000 | C=CCn1c(=O)c2cnc(Nc3ccc(N4CCC(N(C)C)CC4)cc3)nc2n1-c1ccc2c(n1)C(C)(O)C1(CC2)CC1 (stereo not drawn) [Compound 65b]
26 | 100 to 1000 | 100 to 1000 | 100 to 1000 | C=CCn1c(=O)c2cnc(Nc3ccc(N4CC5CC(C4)N5C(C)=O)cc3)nc2n1-c1ccc2c(n1)[C@@](C)(O)C1(CC2)CC1 (single isomer, unassigned) [Compound 50a]
27 | 100 to 1000 | 100 to 1000 | 100 to 1000 | C=CCn1c(=O)c2cnc(Nc3ccc(N4CC5CC(C4)N5C)cc3)nc2n1-c1ccc2c(n1)C(C)(O)C1(CC1)C2 (stereo not drawn) [Compound 13]
28 | 100 to 1000 | 100 to 1000 | 100 to 1000 | C=CCn1c(=O)c2cnc(Nc3ccc(N4CC5CC(C4)N5C(C)=O)cc3)nc2n1-c1ccc2c(n1)[C@](C)(O)C1(CC2)CC1 (single isomer, unassigned) [Compound 50b]
29 | 100 to 1000 | > 10000 | 1000 to 2000 | C=CCn1c(=O)c2cnc(Nc3ccc4c(c3)CN(C)CC4(C)C)nc2n1-c1ccc2c(n1)C(C)(O)C1(CC1)C2 (racemic) [Compound 9]
30 | 100 to 1000 | 100 to 1000 | 100 to 1000 | C=CCn1c(=O)c2cnc(Nc3ccc(N4CC5CN(C)CC5C4)cc3)nc2n1-c1ccc2c(n1)C(O)C1(CC2)CC1 (single isomer, unassigned) [Compound 63a]
31 | 100 to 1000 | 100 to 1000 | 100 to 1000 | C=CCn1c(=O)c2cnc(Nc3ccc(N4CCN(C)C(C)C4)cc3)nc2n1-c1ccc2c(n1)C(O)C1(CC2)CC1 (stereo not drawn) [Compound 68b]
32 | 100 to 1000 | 1000 to 2000 | 100 to 1000 | C=CCn1c(=O)c2cnc(Nc3ccc(N4C[C@@H]5C[C@H]4CN5C)cc3)nc2n1-c1ccc2c(n1)[C@@](C)(O)C1(CC2)CC1 (single isomer, unassigned) [Compound 45a]
33 | 100 to 1000 | 100 to 1000 | 100 to 1000 | C=CCn1c(=O)c2cnc(Nc3ccc(N4CC5CC(C4)N5C)cc3)nc2n1-c1ccc2c(n1)[C@@](O)(CC)C1(CC2)CC1 (single isomer, unassigned) [Compound 64b]
34 | 100 to 1000 | 1000 to 2000 | 100 to 1000 | C=CCn1c(=O)c2cnc(Nc3ccc(N4CCC(N5CCN(C)CC5)C(F)C4)cc3)nc2n1-c1ccc2c(n1)C(C)(O)C1(CC1)C2 (mixture of isomers) [Compound 14]
35 | 100 to 1000 | 100 to 1000 | 100 to 1000 | C=CCn1c(=O)c2cnc(Nc3ccc(N4CC5CN(C)CC5C4)cc3)nc2n1-c1ccc2c(n1)C(C)(O)C1(CC2)CC1 (single isomer, unassigned) [Compound 43a]
36 | 100 to 1000 | 100 to 1000 | 100 to 1000 | C=CCn1c(=O)c2cnc(Nc3ccc(N4CCC(N(C)C)[C@H](F)C4)cc3)nc2n1-c1ccc2c(n1)C(C)(O)C1(CC2)CC1 (stereo partly drawn) [Compound 60a]
37 | 100 to 1000 | 100 to 1000 | 100 to 1000 | C=CCn1c(=O)c2cnc(Nc3ccc(N4CCC(N(C)C)CC4)cc3)nc2n1-c1ccc2c(n1)C(O)(C(F)(F)F)C1(CC2)CC1 (stereo not drawn) [Compound 54b]
